Results reported in ChEMBL document CHEMBL4219204, “Structure-based design and discovery of potent and selective KDM5 inhibitors” (Bioorg Med Chem Lett, 2018).

How the values were obtained:
Mus musculus = test: In vivo inhibition of KDM5 in nude mouse xenografted with human MCF7 cells assessed as increase in H3K4me3 level in tumor at 75 mg/kg, po qd for 5 days measured at 1 hrs post last dose by Western blot analysis relative to control; type: functional
[1] = Clearance in CD-1 mouse at 5 mg/kg, iv; type: ADME, organism-based; settings: in vivo
[2] = biological target: T1, Lysine-specific demethylase 3A (Homo sapiens, UniProt Q9Y4C1); test: Inhibition of KDM3A (unknown origin)
T1 sequence (Q9Y4C1 whole entry): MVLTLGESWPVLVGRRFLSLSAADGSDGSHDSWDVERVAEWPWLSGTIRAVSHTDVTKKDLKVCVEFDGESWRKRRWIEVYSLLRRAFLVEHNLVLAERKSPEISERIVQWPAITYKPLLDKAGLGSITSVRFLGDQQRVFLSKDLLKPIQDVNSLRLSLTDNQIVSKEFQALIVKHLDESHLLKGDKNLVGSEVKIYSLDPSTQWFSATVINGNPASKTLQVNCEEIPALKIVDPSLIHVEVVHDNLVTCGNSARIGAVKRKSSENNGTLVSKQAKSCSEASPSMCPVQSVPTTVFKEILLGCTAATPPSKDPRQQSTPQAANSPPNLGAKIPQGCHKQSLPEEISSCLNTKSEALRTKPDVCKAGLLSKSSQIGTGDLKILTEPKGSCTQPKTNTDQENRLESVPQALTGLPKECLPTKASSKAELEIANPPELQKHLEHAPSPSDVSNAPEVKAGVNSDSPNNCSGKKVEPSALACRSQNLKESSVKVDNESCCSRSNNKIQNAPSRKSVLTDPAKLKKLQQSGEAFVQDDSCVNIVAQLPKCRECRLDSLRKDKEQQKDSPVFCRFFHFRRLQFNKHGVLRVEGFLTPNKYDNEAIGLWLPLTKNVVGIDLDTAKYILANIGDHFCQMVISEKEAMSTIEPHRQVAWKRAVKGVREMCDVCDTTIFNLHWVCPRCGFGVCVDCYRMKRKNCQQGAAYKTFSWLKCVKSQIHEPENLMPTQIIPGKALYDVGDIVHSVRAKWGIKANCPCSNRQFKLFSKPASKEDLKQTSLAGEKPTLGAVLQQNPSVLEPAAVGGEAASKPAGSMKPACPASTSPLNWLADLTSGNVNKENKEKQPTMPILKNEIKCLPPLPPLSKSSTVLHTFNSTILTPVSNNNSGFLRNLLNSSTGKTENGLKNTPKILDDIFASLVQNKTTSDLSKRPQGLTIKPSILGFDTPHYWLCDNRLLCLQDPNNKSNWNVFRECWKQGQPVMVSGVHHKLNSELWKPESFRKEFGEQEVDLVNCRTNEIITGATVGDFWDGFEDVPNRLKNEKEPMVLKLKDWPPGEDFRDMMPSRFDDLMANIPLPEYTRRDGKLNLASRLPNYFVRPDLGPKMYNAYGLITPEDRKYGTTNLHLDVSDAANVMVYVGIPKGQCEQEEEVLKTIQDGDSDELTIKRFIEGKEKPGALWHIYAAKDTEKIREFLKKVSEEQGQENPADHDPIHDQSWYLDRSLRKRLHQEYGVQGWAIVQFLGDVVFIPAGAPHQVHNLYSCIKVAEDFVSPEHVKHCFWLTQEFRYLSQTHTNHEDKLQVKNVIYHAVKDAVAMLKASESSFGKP

[3] = biological target: Lysine-specific demethylase 6B (Homo sapiens, UniProt O15054); test: Inhibition of KDM6B (unknown origin)
Sequence of Lysine-specific demethylase 6B (O15054 whole entry): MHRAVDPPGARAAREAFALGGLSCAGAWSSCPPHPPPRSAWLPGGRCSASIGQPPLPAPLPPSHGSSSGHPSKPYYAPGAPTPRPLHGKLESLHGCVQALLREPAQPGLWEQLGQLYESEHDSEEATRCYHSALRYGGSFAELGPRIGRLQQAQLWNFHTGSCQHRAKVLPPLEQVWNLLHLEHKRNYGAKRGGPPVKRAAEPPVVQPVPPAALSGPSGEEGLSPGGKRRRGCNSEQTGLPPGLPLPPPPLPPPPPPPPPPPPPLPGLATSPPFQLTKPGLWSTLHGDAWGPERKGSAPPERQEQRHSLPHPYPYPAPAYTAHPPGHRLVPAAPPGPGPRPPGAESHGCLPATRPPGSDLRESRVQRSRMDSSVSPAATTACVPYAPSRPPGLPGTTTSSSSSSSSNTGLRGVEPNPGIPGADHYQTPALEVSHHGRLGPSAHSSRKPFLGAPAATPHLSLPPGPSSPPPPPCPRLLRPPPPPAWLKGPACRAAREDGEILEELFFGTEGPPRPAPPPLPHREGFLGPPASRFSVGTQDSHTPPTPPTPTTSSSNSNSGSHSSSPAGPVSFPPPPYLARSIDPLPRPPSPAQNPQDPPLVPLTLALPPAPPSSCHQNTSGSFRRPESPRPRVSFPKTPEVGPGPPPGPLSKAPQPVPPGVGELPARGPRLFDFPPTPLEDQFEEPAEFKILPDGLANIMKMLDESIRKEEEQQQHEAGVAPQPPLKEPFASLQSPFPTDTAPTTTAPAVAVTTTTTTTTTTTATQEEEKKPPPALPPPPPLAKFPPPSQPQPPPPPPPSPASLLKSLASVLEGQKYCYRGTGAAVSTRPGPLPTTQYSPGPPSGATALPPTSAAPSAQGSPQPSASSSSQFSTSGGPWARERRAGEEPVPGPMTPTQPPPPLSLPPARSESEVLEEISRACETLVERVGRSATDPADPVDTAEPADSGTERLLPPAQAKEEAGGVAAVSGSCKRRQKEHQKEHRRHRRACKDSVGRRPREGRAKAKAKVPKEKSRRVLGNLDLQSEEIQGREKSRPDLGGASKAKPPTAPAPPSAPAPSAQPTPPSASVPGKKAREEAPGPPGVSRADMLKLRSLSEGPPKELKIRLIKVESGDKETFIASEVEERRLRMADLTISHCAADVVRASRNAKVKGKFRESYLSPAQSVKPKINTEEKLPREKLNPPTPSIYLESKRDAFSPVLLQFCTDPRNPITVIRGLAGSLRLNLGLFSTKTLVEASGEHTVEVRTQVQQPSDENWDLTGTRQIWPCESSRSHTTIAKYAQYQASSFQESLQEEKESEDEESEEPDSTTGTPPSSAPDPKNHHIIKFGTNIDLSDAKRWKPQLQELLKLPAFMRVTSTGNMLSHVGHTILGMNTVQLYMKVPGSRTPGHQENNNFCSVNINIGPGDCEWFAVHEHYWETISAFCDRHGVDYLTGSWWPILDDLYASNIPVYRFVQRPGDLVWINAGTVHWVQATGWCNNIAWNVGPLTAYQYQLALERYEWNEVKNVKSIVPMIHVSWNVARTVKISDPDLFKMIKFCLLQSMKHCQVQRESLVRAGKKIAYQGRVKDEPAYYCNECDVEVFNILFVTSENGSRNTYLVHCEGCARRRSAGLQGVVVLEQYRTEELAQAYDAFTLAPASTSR

[4] = biological target: T2, Lysine-specific demethylase 4B (Homo sapiens, UniProt O94953); test: Inhibition of KDM4B (unknown origin)
T2 sequence (O94953 whole entry): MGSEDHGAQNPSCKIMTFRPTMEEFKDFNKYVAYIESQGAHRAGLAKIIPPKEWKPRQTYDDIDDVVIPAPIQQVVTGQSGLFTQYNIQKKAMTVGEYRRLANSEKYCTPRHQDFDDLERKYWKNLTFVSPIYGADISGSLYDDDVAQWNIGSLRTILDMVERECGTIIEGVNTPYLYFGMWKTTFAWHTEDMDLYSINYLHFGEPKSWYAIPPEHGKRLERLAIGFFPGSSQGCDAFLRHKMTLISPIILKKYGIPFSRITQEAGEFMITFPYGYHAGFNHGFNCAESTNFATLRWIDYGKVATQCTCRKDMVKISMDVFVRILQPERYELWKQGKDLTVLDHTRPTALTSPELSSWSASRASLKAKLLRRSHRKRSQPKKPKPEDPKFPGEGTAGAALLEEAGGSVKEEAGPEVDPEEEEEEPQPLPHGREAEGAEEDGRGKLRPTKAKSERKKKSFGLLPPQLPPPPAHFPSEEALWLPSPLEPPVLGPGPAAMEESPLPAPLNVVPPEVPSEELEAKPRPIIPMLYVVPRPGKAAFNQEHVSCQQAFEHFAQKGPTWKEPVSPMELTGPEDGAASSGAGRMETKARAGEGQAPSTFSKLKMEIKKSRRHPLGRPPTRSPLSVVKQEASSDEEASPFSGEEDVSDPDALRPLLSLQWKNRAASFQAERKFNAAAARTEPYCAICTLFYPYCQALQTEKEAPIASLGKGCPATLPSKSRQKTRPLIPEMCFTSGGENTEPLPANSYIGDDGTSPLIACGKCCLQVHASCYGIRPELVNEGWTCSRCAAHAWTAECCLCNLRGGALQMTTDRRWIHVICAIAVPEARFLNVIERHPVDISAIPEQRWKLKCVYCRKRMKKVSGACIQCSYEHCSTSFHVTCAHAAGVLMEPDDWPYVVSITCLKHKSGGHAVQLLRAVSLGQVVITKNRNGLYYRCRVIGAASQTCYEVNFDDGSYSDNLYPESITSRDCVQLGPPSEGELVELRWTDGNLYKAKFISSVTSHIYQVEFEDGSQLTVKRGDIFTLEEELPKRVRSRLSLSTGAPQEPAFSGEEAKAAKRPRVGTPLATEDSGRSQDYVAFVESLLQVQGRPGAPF

[5] = biological target: Lysine-specific demethylase 5A (Homo sapiens, UniProt P29375); test: Inhibition of KDM5A (unknown origin) preincubated with enzyme
Sequence of Lysine-specific demethylase 5A (P29375 whole entry): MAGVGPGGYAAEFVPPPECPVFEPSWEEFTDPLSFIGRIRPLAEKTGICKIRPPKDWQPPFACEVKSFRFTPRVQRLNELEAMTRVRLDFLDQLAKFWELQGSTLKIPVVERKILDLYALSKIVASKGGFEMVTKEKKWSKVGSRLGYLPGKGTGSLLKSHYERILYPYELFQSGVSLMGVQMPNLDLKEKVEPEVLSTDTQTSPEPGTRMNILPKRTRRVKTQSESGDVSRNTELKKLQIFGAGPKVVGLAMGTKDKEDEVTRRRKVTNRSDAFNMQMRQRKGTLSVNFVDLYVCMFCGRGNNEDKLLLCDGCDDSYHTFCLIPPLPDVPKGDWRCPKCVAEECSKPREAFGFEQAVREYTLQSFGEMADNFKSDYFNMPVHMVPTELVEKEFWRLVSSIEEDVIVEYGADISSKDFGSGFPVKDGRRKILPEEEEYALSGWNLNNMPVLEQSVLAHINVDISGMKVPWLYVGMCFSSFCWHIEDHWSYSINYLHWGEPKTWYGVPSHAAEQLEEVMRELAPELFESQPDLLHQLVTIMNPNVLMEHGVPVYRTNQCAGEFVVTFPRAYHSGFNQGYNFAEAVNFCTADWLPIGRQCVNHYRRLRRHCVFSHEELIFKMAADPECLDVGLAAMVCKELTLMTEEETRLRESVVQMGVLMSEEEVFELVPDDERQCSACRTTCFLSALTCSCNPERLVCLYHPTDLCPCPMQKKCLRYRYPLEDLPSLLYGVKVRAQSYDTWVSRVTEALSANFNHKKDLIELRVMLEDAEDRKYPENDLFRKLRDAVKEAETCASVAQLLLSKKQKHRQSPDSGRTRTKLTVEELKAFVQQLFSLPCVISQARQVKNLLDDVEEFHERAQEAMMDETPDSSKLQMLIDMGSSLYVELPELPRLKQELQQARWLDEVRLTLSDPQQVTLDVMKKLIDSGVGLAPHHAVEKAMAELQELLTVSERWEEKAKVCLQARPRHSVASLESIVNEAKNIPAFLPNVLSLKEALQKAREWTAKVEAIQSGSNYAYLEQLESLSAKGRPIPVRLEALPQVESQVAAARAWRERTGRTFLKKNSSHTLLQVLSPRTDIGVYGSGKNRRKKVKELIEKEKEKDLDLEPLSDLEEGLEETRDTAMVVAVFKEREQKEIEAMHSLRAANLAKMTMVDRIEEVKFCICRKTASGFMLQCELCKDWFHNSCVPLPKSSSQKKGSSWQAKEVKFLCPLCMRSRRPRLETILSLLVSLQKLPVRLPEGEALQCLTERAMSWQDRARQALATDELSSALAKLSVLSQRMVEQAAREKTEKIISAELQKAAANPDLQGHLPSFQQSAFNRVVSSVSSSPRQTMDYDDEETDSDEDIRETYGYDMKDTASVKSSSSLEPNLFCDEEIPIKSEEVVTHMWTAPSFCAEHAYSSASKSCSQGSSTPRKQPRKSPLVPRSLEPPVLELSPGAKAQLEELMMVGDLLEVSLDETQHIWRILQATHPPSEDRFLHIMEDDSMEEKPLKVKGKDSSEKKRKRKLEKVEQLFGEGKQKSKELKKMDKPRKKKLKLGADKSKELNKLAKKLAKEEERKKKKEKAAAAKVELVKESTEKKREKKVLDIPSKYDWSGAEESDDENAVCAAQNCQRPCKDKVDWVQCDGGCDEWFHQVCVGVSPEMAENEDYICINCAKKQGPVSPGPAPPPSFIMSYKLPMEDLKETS

[6] = biological target: Lysine-specific demethylase 5B (Homo sapiens, UniProt Q9UGL1); test: Inhibition of KDM5B (unknown origin) preincubated with enzyme
[7] = biological target: ATP-dependent translocase ABCB1 (Homo sapiens, UniProt P08183); test: Inhibition of MDR1 (unknown origin); type: ADME
Sequence of ATP-dependent translocase ABCB1 (P08183 whole entry): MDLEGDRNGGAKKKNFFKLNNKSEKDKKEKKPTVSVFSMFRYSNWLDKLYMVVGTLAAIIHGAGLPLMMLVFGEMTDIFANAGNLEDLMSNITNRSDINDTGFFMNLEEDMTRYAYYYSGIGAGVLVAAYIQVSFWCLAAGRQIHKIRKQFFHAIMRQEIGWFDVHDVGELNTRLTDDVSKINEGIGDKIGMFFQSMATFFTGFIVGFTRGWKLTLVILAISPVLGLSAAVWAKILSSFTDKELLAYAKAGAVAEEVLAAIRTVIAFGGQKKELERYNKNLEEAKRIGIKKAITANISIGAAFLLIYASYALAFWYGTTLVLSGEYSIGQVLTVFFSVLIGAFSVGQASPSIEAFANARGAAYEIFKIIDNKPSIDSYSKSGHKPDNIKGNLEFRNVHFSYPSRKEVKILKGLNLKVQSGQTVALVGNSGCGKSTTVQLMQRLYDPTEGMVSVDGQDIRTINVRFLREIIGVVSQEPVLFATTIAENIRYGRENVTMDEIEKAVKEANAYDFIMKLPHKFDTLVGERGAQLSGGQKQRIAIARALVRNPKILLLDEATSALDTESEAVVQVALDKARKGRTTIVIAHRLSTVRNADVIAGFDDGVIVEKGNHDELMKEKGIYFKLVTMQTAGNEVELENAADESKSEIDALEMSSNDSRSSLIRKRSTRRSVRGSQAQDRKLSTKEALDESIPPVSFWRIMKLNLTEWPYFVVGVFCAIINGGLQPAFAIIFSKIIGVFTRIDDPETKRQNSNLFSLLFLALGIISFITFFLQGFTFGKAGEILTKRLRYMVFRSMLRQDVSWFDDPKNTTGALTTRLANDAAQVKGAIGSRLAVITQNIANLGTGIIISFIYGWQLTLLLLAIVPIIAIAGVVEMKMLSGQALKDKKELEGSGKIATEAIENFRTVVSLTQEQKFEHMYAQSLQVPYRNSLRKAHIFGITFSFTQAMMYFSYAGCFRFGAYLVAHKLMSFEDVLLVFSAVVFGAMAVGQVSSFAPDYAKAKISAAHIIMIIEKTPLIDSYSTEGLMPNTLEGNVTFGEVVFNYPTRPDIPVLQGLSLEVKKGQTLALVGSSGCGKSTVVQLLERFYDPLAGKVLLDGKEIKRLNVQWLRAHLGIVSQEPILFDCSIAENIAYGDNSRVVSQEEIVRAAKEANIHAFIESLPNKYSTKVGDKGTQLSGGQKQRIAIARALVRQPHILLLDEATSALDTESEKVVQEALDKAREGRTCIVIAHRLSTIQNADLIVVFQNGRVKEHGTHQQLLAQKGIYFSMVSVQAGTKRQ

clearance [1]: 0.126 L/h/kg | IC50 [2]: 2.3 µM | IC50 [3]: 2.3 µM | IC50 [4]: 0.17 µM | IC50 [5]: 0.013 µM | IC50 [6]: 0.002 µM | inhibition (INH) [7]: Not Active
Structure (SMILES): Cc1cc(Cl)ccc1COc1ccnn1-c1cc(C(=O)O)ccn1
fold change (FC) (Mus musculus): >4
